For six compounds, % of control and IC50 results are on record in ChEMBL document CHEMBL5212743, “Selectivity Literature for EUbOPEN Chemogenomics Library wave 3” (2023).

The target of assay [1] is T1, Aurora kinase B (Homo sapiens, UniProt Q96GD4). The following applies: at 1 µM.
For assay [2], the target named is T2, Dual specificity mitogen-activated protein kinase kinase 5 (Homo sapiens) (UniProt Q13163).
T2 sequence (whole entry): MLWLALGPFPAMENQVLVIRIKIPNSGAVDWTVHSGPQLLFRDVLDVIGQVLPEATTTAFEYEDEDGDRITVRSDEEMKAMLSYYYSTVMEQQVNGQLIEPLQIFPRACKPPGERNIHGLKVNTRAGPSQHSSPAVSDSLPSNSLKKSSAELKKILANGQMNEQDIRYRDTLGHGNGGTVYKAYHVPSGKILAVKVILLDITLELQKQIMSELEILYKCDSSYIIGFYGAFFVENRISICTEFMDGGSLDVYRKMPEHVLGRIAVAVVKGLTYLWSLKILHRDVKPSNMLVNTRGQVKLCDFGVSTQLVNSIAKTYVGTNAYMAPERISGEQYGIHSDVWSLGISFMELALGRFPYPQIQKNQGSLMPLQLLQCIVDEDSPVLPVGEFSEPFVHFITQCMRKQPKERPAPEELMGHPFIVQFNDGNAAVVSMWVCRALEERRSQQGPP
The following applies: at 1 µM.

In assay [3] the target is Tyrosine-protein kinase Blk (Homo sapiens, UniProt P51451). The conditions noted are these: at 1 µM.
Assay [4] concerns the target T3, Cyclin-G-associated kinase (Homo sapiens) (UniProt O14976).
T3 sequence (whole entry): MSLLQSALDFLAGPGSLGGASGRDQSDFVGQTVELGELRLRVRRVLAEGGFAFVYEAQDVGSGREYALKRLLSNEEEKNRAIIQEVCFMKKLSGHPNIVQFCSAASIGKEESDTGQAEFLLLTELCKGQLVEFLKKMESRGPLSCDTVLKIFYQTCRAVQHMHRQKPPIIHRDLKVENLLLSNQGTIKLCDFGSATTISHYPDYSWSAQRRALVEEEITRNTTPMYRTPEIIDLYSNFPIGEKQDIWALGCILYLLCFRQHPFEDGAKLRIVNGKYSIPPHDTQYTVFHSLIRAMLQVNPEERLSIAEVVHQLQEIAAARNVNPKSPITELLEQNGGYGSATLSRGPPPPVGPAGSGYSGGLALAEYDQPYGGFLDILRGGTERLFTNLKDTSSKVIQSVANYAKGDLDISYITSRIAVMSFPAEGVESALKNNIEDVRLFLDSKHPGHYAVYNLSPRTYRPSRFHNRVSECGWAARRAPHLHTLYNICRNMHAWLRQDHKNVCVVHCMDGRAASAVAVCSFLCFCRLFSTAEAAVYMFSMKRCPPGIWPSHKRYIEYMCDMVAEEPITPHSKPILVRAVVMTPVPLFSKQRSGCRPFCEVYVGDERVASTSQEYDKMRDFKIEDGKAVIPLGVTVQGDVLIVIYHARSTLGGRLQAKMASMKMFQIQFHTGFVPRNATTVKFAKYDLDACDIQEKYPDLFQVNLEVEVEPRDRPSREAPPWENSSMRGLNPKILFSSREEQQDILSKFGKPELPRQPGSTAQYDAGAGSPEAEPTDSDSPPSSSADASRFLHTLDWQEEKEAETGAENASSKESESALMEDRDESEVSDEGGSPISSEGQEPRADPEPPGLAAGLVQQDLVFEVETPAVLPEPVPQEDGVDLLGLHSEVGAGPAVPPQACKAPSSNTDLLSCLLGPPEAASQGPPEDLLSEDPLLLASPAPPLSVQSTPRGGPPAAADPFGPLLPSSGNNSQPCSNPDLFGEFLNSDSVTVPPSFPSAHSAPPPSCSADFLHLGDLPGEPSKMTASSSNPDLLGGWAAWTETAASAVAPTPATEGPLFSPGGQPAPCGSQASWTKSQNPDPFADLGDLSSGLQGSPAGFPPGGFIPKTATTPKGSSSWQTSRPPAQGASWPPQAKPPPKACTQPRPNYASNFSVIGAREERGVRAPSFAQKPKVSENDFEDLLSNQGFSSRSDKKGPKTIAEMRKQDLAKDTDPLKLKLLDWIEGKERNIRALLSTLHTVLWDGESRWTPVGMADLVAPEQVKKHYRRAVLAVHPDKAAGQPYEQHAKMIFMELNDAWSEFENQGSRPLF
Description: Selectivity interaction (KinomeScan (DiscoverX)) EUB0000698a GAK. The following applies: at 10 µM.

Assay [5] has as its target Serine/threonine-protein kinase 10 (Homo sapiens) (UniProt O94804). Put plainly: Selectivity interaction (KinomeScan (DiscoverX)) EUB0000698a STK10. The following applies: at 10 µM.
Assay [6] has as its target Vascular endothelial growth factor receptor 3 (Homo sapiens) (UniProt P35916). Description: Selectivity interaction (KinomeScan (DiscoverX)) EUB0000698a FLT4. The following applies: at 10 µM.
In assay [7] the target is T4, Dual specificity mitogen-activated protein kinase kinase 5 (Homo sapiens, UniProt Q13163).
T4 sequence (Q13163 whole entry): T2 sequence (whole entry)
Description: Selectivity interaction (Enzymatic assay) EUB0000305b MAP2K5.

Assay [8] deals with T1, Aurora kinase B. Put plainly: Selectivity interaction (KinomeScan (DiscoverX)) EUB0000702a AURKB. The conditions noted are these: at 1 µM.
Assay [9] deals with T5, Phosphatidylinositol 5-phosphate 4-kinase type-2 gamma (Homo sapiens) (UniProt Q8TBX8).
T5 sequence (whole entry): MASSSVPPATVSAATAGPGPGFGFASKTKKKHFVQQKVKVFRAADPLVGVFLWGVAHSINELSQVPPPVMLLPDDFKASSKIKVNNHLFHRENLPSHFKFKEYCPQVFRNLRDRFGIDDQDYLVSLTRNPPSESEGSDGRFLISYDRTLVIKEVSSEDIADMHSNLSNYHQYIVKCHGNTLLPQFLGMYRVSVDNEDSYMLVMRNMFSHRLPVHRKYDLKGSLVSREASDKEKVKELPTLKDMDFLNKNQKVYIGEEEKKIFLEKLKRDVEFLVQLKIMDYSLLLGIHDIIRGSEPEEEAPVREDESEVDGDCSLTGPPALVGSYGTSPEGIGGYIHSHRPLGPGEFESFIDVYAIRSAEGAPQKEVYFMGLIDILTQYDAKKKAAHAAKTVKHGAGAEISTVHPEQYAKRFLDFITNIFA
Description: Selectivity interaction (KinomeScan (DiscoverX)) EUB0000178b PIP4K2C. The following applies: at 1 µM.

The target of assay [10] is Casein kinase II subunit alpha (Homo sapiens, UniProt P68400). Put plainly: Selectivity interaction (Kinase panel (University of Dundee)) EUB0000169b CSNK2A1. The following applies: at 10 µM.
The target of assay [11] is T5, Phosphatidylinositol 5-phosphate 4-kinase type-2 gamma (Homo sapiens). Description: Selectivity interaction (KinomeScan (DiscoverX)) EUB0000169b PIP4K2C. The following applies: at 1 µM.

A value given as a limit tells only on which side of the number the result lay.

T1 sequence (Q96GD4 whole entry): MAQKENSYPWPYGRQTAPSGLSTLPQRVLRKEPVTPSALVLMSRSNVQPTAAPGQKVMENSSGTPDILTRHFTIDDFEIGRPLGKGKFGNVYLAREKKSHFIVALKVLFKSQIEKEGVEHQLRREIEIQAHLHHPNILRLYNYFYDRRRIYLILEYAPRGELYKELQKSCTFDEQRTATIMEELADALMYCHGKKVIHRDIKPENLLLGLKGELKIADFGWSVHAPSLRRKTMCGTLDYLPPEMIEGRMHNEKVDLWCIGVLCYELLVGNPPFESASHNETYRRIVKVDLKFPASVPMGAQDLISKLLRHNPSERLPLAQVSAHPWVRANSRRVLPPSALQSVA
Vascular endothelial growth factor receptor 3 (Homo sapiens), sequence (P35916 whole entry): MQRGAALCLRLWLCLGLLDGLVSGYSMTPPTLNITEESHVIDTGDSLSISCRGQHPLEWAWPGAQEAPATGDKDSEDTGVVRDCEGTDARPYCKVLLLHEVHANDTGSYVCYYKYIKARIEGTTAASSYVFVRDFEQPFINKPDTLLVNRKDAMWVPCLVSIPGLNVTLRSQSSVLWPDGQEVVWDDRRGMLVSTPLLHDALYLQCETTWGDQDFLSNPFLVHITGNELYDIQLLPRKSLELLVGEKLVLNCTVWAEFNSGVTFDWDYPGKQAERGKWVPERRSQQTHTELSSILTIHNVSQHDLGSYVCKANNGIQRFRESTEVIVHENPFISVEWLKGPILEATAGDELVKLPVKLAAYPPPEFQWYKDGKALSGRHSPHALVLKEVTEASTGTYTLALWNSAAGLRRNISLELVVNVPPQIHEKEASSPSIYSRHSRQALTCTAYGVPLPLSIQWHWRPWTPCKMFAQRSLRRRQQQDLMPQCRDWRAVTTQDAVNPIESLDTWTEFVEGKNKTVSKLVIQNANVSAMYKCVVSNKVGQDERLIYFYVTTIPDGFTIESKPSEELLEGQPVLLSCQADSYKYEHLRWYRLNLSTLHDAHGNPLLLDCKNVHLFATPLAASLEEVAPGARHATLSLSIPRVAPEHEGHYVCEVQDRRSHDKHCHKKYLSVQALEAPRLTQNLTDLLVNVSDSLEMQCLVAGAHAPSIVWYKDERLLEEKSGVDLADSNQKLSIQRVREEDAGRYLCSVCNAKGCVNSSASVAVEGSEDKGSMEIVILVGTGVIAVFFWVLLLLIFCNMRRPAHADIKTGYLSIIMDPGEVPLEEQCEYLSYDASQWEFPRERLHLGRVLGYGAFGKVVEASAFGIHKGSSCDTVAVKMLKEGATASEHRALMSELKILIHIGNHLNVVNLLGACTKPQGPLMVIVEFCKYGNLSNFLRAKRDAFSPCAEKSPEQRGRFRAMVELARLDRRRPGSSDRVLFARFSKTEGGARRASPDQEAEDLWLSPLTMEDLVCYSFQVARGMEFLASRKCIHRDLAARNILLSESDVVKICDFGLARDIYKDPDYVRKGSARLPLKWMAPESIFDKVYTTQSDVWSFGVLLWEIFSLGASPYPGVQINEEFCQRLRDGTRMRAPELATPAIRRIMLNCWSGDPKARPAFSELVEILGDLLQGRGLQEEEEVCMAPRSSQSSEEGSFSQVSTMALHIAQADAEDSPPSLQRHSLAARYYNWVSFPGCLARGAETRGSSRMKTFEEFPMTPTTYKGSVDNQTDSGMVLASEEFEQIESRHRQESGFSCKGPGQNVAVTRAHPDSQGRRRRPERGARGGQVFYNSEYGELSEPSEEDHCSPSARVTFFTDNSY
Casein kinase II subunit alpha, sequence (P68400 whole entry, looked up): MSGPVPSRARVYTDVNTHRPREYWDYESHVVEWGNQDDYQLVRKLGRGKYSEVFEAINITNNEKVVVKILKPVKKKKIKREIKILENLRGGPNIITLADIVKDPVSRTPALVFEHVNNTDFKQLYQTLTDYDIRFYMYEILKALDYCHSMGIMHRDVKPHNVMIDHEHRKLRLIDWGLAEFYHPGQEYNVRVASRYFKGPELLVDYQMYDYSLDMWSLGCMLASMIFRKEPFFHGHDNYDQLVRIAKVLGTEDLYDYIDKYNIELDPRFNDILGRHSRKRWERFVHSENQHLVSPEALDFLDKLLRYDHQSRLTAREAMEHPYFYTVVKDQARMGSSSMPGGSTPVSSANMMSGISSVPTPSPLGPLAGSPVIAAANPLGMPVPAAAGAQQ
Tyrosine-protein kinase Blk, sequence (P51451 whole entry, looked up): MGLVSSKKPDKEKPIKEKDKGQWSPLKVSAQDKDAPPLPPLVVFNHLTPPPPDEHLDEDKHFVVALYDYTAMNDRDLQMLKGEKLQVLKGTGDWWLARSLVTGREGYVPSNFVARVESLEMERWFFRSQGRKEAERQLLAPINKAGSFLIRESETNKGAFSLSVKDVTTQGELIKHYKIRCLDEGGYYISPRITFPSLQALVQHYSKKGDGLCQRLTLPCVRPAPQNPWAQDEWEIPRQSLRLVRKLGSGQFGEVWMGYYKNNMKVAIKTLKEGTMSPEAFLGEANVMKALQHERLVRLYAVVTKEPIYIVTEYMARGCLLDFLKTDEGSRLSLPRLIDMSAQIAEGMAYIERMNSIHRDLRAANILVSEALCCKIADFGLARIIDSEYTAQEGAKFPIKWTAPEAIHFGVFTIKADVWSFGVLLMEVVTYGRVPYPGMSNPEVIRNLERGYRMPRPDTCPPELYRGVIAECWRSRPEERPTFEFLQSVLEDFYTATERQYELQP
Serine/threonine-protein kinase 10 (Homo sapiens), sequence (O94804 whole entry, looked up): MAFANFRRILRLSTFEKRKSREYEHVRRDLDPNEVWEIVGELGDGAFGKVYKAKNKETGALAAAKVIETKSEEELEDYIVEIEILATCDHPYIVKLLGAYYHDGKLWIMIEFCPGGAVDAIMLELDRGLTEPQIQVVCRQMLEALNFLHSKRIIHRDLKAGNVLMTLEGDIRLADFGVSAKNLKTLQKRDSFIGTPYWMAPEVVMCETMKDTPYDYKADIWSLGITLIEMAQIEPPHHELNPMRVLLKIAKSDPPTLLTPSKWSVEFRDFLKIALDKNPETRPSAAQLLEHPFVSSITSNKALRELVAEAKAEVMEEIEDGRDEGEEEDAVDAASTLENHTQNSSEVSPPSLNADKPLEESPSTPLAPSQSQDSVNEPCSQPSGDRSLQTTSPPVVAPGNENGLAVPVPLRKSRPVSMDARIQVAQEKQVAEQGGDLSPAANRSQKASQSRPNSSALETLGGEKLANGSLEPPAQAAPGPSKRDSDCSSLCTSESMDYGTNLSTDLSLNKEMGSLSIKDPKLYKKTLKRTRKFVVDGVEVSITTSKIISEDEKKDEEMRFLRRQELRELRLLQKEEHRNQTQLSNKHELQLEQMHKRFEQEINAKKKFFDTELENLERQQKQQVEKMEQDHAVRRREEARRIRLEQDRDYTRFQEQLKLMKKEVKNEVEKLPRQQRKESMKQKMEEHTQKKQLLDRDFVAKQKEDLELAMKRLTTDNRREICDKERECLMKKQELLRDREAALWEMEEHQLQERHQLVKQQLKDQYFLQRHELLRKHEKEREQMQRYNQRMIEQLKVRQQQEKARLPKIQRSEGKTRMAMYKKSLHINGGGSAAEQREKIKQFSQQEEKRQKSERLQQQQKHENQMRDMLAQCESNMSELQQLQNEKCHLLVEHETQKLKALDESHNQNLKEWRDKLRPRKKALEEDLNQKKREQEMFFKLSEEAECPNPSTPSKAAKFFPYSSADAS

With `CCOc1cn(-c2ccc(F)cc2C)nc1C(=O)Nc1ccc(Oc2ccnc3cc(OC)c(OC)cc23)c(F)c1`, the % of control in assay [1], in [2] and in assay [3] was less than 10% in each case.
In the case of `COc1cc2ncn(-c3cc(OCc4ccccc4C(F)(F)F)c(C(N)=O)s3)c2cc1OC` [GW843682X], the % of control in assay [4] worked out at 4.1%; in assay [5], 0%; in assay [6], 1.4%.
Take `C[C@H](c1ccnc(Nc2nc3ccc(-c4cc(N(C)C)ncn4)cc3[nH]2)c1)N1CCN(C(=O)CC(F)(F)F)CC1` [BAY-985]: in assay [7], the IC50 – broadly, the point on the concentration scale where inhibition reaches its midpoint – was determined as 847 nM.
Regarding `CN(c1ccnc(CNc2nc(Nc3ccc4c(c3)CC(=O)N4)ncc2C(F)(F)F)n1)S(C)(=O)=O` [PF-00911705], the % of control in assay [8] was determined as 9.9%.
Turning to `CN1C(=O)c2sccc2N(C)c2nc(Nc3ccc(S(N)(=O)=O)cc3)ncc21`, the % of control in assay [9] was 8%.
As for `CC[C@@H]1C(=O)N(C)c2cnc(Nc3ccc(C(=O)NC4CCN(C)CC4)cc3OC)nc2N1C1CCCC1`, the % of control in [10] came out at 103%; in [11] it was 4.2%.
